Laboratory results reported in patent publication US8937089B2, “Synergistic mixtures of anthranilamide invertebrate pest control agents” (priority 2004, dated 2015).
Like-named read-outs stand apart in the source and are kept apart here.

What was measured:
Experiment in all cases: whole plant or invertebrate
Type in all cases: in vivo
[1] = test system: silverleaf whitefly (Bemisia argentifolii Bellows and Perring)
Description: For evaluating control of silverleaf whitefly (Bemisia argentifolii Bellows and Perring) through contact and/or systemic means, each test unit consisted of a small open container with a 12- to 14-day-old cotton plant inside. This was pre-infested by placing test units into cages infested with adult whiteflies so that oviposition on the cotton leaves could occur. The adults were removed from the plants with an air-blast nozzle, and the test units were capped. The test units were then stored 2 to 3 days before spraying.
(§1) Test compounds were formulated using a solution containing 10% acetone, 90% water and 300 ppm X-77® Spreader Lo-Foam Formula non-ionic surfactant containing alkylarylpolyoxyethylene, free fatty acids, glycols and 2-propanol (Loveland Industries, Inc.) to provide the desired concentration in ppm. Formulated test solutions were then applied in 1 mL volumes through a SUJ2 atomizer nozzle with 1/8 JJ custom body (Spraying Systems Co.) positioned 1.27 cm (0.5 inches) above the top of each test unit.
The results for all experimental compositions in this test were replicated three times. After spraying of the formulated test composition, each test unit was allowed to dry for 1 hour and the cap removed. The test units were held for 13 days in a growth chamber at 28° C. and 50-70% relative humidity.

[2] = test system: western flower thrip (Frankliniella occidentalis Pergande)
Method: as §1
For evaluating control of the western flower thrip (Frankliniella occidentalis Pergande) through contact and/or systemic means, each test unit consisted of a small open container with a 5- to 7-day-old bean (var. Soleil) plant inside.
Test solutions were formulated and sprayed with 3 replications as described for Test A. After spraying, the test units were allowed to dry for 1 hour, 22 to 27 adult thrips were added to each unit and then a black, screened cap was placed on top. The test units were held for 7 days at 25° C. and 45-55% relative humidity.

[3] = test system: potato leafhopper (Empoasca fabae Harris)
Method: as §1
[…] White sand was added to the top of the soil, and one of the primary leaves was excised prior to application. Test compounds were formulated and sprayed with 3 replications as described for Test A. After spraying, the test units were allowed to dry for 1 hour before they were infested with 5 potato leafhoppers (18- to 21-day-old adults). A black, screened cap was placed on the top of each container. The test units were held for 6 days in a growth chamber at 19-21° C. and 50-70% relative humidity.

[4] = test system: corn planthopper (Peregrines maidis)
Method: as §1
For evaluating control of corn planthopper (Peregrines maidis) through contact and/or systemic means, each test unit consisted of a small open cylindrical container with a 3- to 4-day-old corn (maize) plant (spike) inside. White sand was added to the top of the soil prior to application. Test compounds were formulated and sprayed with 3 replications as described for Test A. After spraying, the test units were allowed to dry for 1 hour before they were post-infested with 10 to 20 corn planthoppers (18- to 20-day-old nymphs) by sprinkling them onto the sand with a salt shaker. A black, screened cap was placed on the top of each container. The test units were held for 6 days in a growth chamber at 19-21° C. and 50-70% relative humidity.

[5] = test system: cotton melon aphid (Aphis gossypii Glover)
Method: as §1
(§2) For evaluating control of cotton melon aphid (Aphis gossypii Glover) through contact and/or systemic means, each test unit consisted of a small open container with a 6- to 7-day-old cotton plant inside. This was pre-infested by placing on a leaf of the test plant 30 to 40 aphids on a piece of leaf excised from a culture plant (cut-leaf method). The larvae moved onto the test plant as the leaf piece desiccated. After pre-infestation, the soil of the test unit was covered with a layer of sand.
(§3) Test compounds were formulated and sprayed as described for Test A. The applications were replicated three times. After spraying of the formulated test compounds, each test unit was allowed to dry for 1 hour and then a black, screened cap was placed on top. The test units were held for 6 days in a growth chamber at 19-21° C. and 50-70% relative humidity.

[6] = test system: green peach aphid (Myzus persicae Sulzer)
Method: as §1
as §2, with “green peach” for “cotton melon”, “(Myzus persicae Sulzer)” for “(Aphis gossypii Glover)”, “12-” for “6-”, “15-day-old radish” for “7-day-old cotton”
as §3, with “described in” for “described for”, “Test A,” for “Test A. The applications were”, “test compound,” for “test compounds,”

[7] = rate 1 ppm, single compound, spray, 7 days
[8] = rate 100 ppm, single compound, spray, 7 days
[9] = rate 3000 ppm, single compound, spray, 7 days
[10] = Corn Plant Hopper, rate 0.3 ppm
[11] = Corn Plant Hopper, rate 0.4 ppm
[12] = Green Peach Aphid, rate 0.2 ppm
[13] = Green Peach Aphid, rate 0.4 ppm

Compound: Acetamiprid
- % mortality (obs) ([1]; Table 2B, rate 1 ppm): 3%
- % mortality (obs) ([1]; Table 2B, rate 5 ppm): 45%
- % mortality (obs) ([1]; Table 2B, rate 20 ppm): 83%
- % mortality (obs) [2, 7]: 70%
- % mortality (obs) [2, 8]: 90%
- % mortality (obs) [2, 9]: 100%
- % mortality (obs) ([3]; rate 1 ppm, alone): 27%
- % mortality (obs) ([3]; rate 4 ppm, alone): 60%
- % mortality (obs) ([3]; rate 12 ppm, alone): 87%
- % mortality (obs) [4, 10]: 43%
- % mortality (obs) [4, 11]: 85%
- % mortality (obs) ([4]; Corn Plant Hopper, rate 0.5 ppm): 100%
- % mortality (obs) ([5]; rate 0.02 ppm): 42%
- % mortality (obs) ([5]; rate 0.08 ppm): 67%
- % mortality (obs) ([5]; rate 0.4 ppm): 100%
- % mortality (obs) [6, 12]: 27%
- % mortality (obs) [6, 13]: 52%
- % mortality (obs) ([6]; Green Peach Aphid, rate 0.6 ppm): 46%

Compound: Thiacloprid
- % mortality (obs) ([1]; Table 2B, rate 15 ppm): 40%
- % mortality (obs) ([1]; Table 2B, rate 25 ppm): 83%
- % mortality (obs) ([1]; Table 2B, rate 35 ppm): 61%
- % mortality (obs) [2, 7]: 20%
- % mortality (obs) [2, 8]: 30%
- % mortality (obs) [2, 9]: 40%
- % mortality (obs) ([3]; rate 0.2 ppm, alone): 73%
- % mortality (obs) ([3]; rate 0.5 ppm, alone): 93%
- % mortality (obs) ([3]; rate 1.5 ppm, alone): 80%
- % mortality (obs) [4, 10]: 6%
- % mortality (obs) ([4]; Corn Plant Hopper, rate 3 ppm): 100%
- % mortality (obs) ([4]; Corn Plant Hopper, rate 30 ppm): 100%
- % mortality (obs) ([5]; rate 0.3 ppm): 50%
- % mortality (obs) ([5]; rate 1.5 ppm): 100%
- % mortality (obs) ([5]; rate 6 ppm): 100%
- % mortality (obs) [6, 12]: 13%
- % mortality (obs) ([6]; Green Peach Aphid, rate 0.3 ppm): 68%
- % mortality (obs) [6, 13]: 42%

Compound: CS/C(C)=N\OC(=O)N(C)SN(C)C(=O)O/N=C(\C)SC [Thiodicarb]
- % mortality (obs) ([1]; Table 2B, rate 100 ppm): 1%
- % mortality (obs) ([1]; Table 2B, rate 1000 ppm): 0%
- % mortality (obs) ([1]; Table 2B, rate 3000 ppm): 6%
- % mortality (obs) ([2]; rate 20 ppm, single compound, spray, 7 days): 60%
- % mortality (obs) ([2]; rate 200 ppm, single compound, spray, 7 days): 80%
- % mortality (obs) ([3]; rate 0.08 ppm, alone): 0%
- % mortality (obs) ([3]; rate 0.16 ppm, alone): 20%
- % mortality (obs) ([3]; rate 0.4 ppm, alone): 20%
- % mortality (obs) ([4]; Corn Plant Hopper, rate 0.08 ppm): 2%
- % mortality (obs) ([4]; Corn Plant Hopper, rate 0.16 ppm): 6%
- % mortality (obs) [4, 11]: 7%
- % mortality (obs) ([5]; rate 3 ppm): 49%
- % mortality (obs) ([5]; rate 10 ppm): 32%
- % mortality (obs) ([5]; rate 30 ppm): 69%
- % mortality (obs) ([6]; Green Peach Aphid, rate 20 ppm): 10%
- % mortality (obs) ([6]; Green Peach Aphid, rate 150 ppm): 17%
- % mortality (obs) ([6]; Green Peach Aphid, rate 900 ppm): 98%

Compound: O=[N+]([O-])NC1=NCCN1Cc1ccc(Cl)nc1 [Imidacloprid]
- mortality at 10 ppm ([1]; Bemisia argentifolii, in Gossypium hirsutum, Table 2A, Imidacloprid 10 ppm, read-out: % Mortality (observed)): 1%
- mortality at 22 ppm ([1]; Bemisia argentifolii, in Gossypium hirsutum, Table 2A, Imidacloprid 22 ppm, read-out: % Mortality (observed)): 2%
- mortality at 48 ppm ([1]; Bemisia argentifolii, in Gossypium hirsutum, Table 2A, Imidacloprid 48 ppm, read-out: % Mortality (observed)): 25%
- mortality at 11 ppm ([2]; Frankliniella occidentalis, Table 3A, Imidacloprid 11 ppm, read-out: % Mortality (observed)): 20%
- mortality at 77 ppm ([2]; Frankliniella occidentalis, Table 3A, Imidacloprid 77 ppm, read-out: % Mortality (observed)): 37%
- mortality at 561 ppm ([2]; Frankliniella occidentalis, Table 3A, Imidacloprid 561 ppm, read-out: % Mortality (observed)): 90%
- mortality at 0.2 ppm ([3]; Empoasca fabae, Table 4A, Imidacloprid 0.2 ppm, read-out: % Mortality (observed)): 20%
- mortality at 0.4 ppm ([3]; Empoasca fabae, Table 4A, Imidacloprid 0.4 ppm, read-out: % Mortality (observed)): 0%
- mortality at 1 ppm ([3]; Empoasca fabae, Table 4A, Imidacloprid 1 ppm, read-out: % Mortality (observed)): 20%
- mortality at 0.1 ppm ([4]; Table 5A, Imidacloprid 0.1 ppm, read-out: % Mortality (observed)): 27%
- mortality at 0.3 ppm ([4]; Table 5A, Imidacloprid 0.3 ppm, read-out: % Mortality (observed)): 37%
- mortality at 1 ppm ([4]; Table 5A, Imidacloprid 1 ppm, read-out: % Mortality (observed)): 60%
- mortality at 0.05 ppm ([5]; Aphis gossypii, Table 6A, Imidacloprid 0.05 ppm, read-out: % Mortality (observed)): 12%
- mortality at 0.3 ppm ([5]; Aphis gossypii, Table 6A, Imidacloprid 0.3 ppm, read-out: % Mortality (observed)): 10%
- mortality at 2.1 ppm ([5]; Aphis gossypii, Table 6A, Imidacloprid 2.1 ppm, read-out: % Mortality (observed)): 40%
- mortality at 0.08 ppm ([6]; Myzus persicae, in Raphanus sativus, Table 7A, Imidacloprid 0.08 ppm, read-out: % Mortality (observed)): 4%
- mortality at 0.15 ppm ([6]; Myzus persicae, in Raphanus sativus, Table 7A, Imidacloprid 0.15 ppm, read-out: % Mortality (observed)): 12%
- mortality at 0.26 ppm ([6]; Myzus persicae, in Raphanus sativus, Table 7A, Imidacloprid 0.26 ppm, read-out: % Mortality (observed)): 50%

Compound: CC1(C)CNC(=NN=C(/C=C/c2ccc(C(F)(F)F)cc2)/C=C/c2ccc(C(F)(F)F)cc2)NC1 [Hydramethylnon]
- mortality at 10 ppm ([1]; Bemisia argentifolii, in Gossypium hirsutum, Table 2B, rate 10 ppm, read-out: % mortality (obs)): 2%
- mortality at 100 ppm ([1]; Bemisia argentifolii, in Gossypium hirsutum, Table 2B, rate 100 ppm, read-out: % mortality (obs)): 1%
- mortality at 1000 ppm ([1]; Bemisia argentifolii, in Gossypium hirsutum, Table 2B, rate 1000 ppm, read-out: % mortality (obs)): 0%
- mortality at 10 ppm ([2]; Frankliniella occidentalis, 168 h, rate 10 ppm, single compound, spray, 7 days, read-out: % mortality (obs)): 60%
- mortality at 500 ppm ([2]; Frankliniella occidentalis, 168 h, rate 500 ppm, single compound, spray, 7 days, read-out: % mortality (obs)): 50%
- mortality at 1000 ppm ([2]; Frankliniella occidentalis, 168 h, rate 1000 ppm, single compound, spray, 7 days, read-out: % mortality (obs)): 40%
- mortality at 0.01 ppm ([3]; Empoasca fabae, rate 0.01 ppm, alone, read-out: % mortality (obs)): 0%
- mortality at 1 ppm ([3]; Empoasca fabae, rate 1 ppm, alone, read-out: % mortality (obs)): 27%
- mortality at 2 ppm ([3]; Empoasca fabae, rate 2 ppm, alone, read-out: % mortality (obs)): 60%
- mortality at 0.01 ppm ([4]; Corn Plant Hopper, rate 0.01 ppm, read-out: % mortality (obs)): 7%
- mortality at 1 ppm ([4]; Corn Plant Hopper, rate 1 ppm, read-out: % mortality (obs)): 1%
- mortality at 2 ppm ([4]; Corn Plant Hopper, rate 2 ppm, read-out: % mortality (obs)): 6%
- mortality at 500 ppm ([5]; Aphis gossypii, rate 500 ppm, read-out: % mortality (obs)): 21%
- mortality at 1000 ppm ([5]; Aphis gossypii, rate 1000 ppm, read-out: % mortality (obs)): 40%
- mortality at 1500 ppm ([5]; Aphis gossypii, rate 1500 ppm, read-out: % mortality (obs)): 39%
- mortality at 500 ppm ([6]; Myzus persicae, in Raphanus sativus, Green Peach Aphid, rate 500 ppm, read-out: % mortality (obs)): 18%
- mortality at 1000 ppm ([6]; Myzus persicae, in Raphanus sativus, Green Peach Aphid, rate 1000 ppm, read-out: % mortality (obs)): 8%
- mortality at 1500 ppm ([6]; Myzus persicae, in Raphanus sativus, Green Peach Aphid, rate 1500 ppm, read-out: % mortality (obs)): 7%
